Results taken from ChEMBL document CHEMBL1201862, “PubChem BioAssay data set” (2004).
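How tested: cells in 96-well plates exposed to compound for 48 hours at five concentrations. Here, GI50 denotes the concentration required for 50% inhibition of growth.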 Activity calls are given as the source filed them. No stated cut-off is given here; in the data, active = GI50 up to about 1.1 µM and inactive = higher.

How the values were obtained:
Experiment in all cases: NCI-60 cell line screen, 48 h
786-0 = system: 786-0
A498 = system: A498
A549 = system: A549
ACHN = system: ACHN
BT-549 = system: BT-549
CAKI-1 = system: CAKI-1
CCRF-CEM = system: CCRF-CEM
COLO 205 = system: COLO 205
DU-145 = system: DU-145
EKVX = system: EKVX
HCC 2998 = system: HCC 2998
HCT-116 = system: HCT-116
HCT-15 = system: HCT-15
HOP-62 = system: HOP-62
HOP-92 = system: HOP-92
HT-29 = system: HT-29
Hs-578T = system: Hs-578T
IGROV-1 = system: IGROV-1
K562 = system: K562
KM12 = system: KM12
LOX IMVI = system: LOX IMVI
M14 = system: M14
MCF7 = system: MCF7
MDA-MB-231 = system: MDA-MB-231
MDA-MB-435 = system: MDA-MB-435
MDA-N = system: MDA-N
MOLT-4 = system: MOLT-4
Malme-3M = system: Malme-3M
NCI-H226 = system: NCI-H226
NCI-H23 = system: NCI-H23
NCI-H460 = system: NCI-H460
NCI-H522 = system: NCI-H522
NCI/ADR-RES = system: NCI/ADR-RES
OVCAR-3 = system: OVCAR-3
OVCAR-4 = system: OVCAR-4
OVCAR-5 = system: OVCAR-5
OVCAR-8 = system: OVCAR-8
PC-3 = system: PC-3
RPMI-8226 = system: RPMI-8226
RXF 393 = system: RXF 393
SF-268 = system: SF-268
SF-295 = system: SF-295
SK-MEL-28 = system: SK-MEL-28
SK-MEL-2 = system: SK-MEL-2
SK-MEL-5 = system: SK-MEL-5
SK-OV-3 = system: SK-OV-3
SN12C = system: SN12C
SNB-19 = system: SNB-19
SNB-75 = system: SNB-75
SR = system: SR
SW-620 = system: SW-620
T47D = system: T47D
TK-10 = system: TK-10
U-251 = system: U-251
UACC-257 = system: UACC-257
UACC-62 = system: UACC-62
UO-31 = system: UO-31
HL-60 = system: HL-60
SF-539 = system: SF-539

`O=C1Nc2ccccc2/C1=C1\C(=O)Nc2ccccc21` [ISOINDIGO] was tested, and the GI50 (786-0) was 9.42 µM (inactive), the GI50 (A498) was 20.9 µM (inactive) and the GI50 (A549) was 27.4 µM (inactive). For the same compound, the GI50 (ACHN) was 12.6 µM (inactive), the GI50 (BT-549) was 25.6 µM (inactive) and the GI50 (CAKI-1) was 19.7 µM (inactive). The GI50 (CCRF-CEM) was 2.9 µM (inactive), the GI50 (COLO 205) was 21.9 µM (inactive) and the GI50 (DU-145) was 12.9 µM (inactive). The GI50 (EKVX) was 20.7 µM (inactive), the GI50 (HCC 2998) was 23.2 µM (inactive) and the GI50 (HCT-116) was 17 µM (inactive). The GI50 (HCT-15) was 3.84 µM, the GI50 (HOP-62) was 25 µM (inactive) and the GI50 (HOP-92) was 20.6 µM (inactive). For the same compound, the GI50 (HT-29) was 4.98 µM (inactive), the GI50 (Hs-578T) was 49.2 µM (inactive) and the GI50 (IGROV-1) was 10.3 µM (inactive). The GI50 (K562) was 7.48 µM (inactive), the GI50 (KM12) was 21.6 µM (inactive) and the GI50 (LOX IMVI) was 18.6 µM (inactive). The GI50 (M14) was 32.1 µM (inactive), the GI50 (MCF7) was 4.52 µM (inactive) and the GI50 (MDA-MB-231) was 27.8 µM (inactive). The GI50 (MDA-MB-435) was 11.9 µM (inactive), the GI50 (MDA-N) was 24.5 µM (inactive) and the GI50 (MOLT-4) was 3.59 µM (inactive). For the same compound, the GI50 (Malme-3M) was 13.2 µM (inactive), the GI50 (NCI-H226) was > 100 µM (inactive) and the GI50 (NCI-H23) was 20.9 µM (inactive). The GI50 (NCI-H460) was 21.6 µM (inactive), the GI50 (NCI-H522) was 10.3 µM (inactive) and the GI50 (NCI/ADR-RES) was 17.3 µM (inactive). For the same compound, the GI50 (OVCAR-3) was 19.3 µM (inactive), the GI50 (OVCAR-4) was 10 µM (inactive) and the GI50 (OVCAR-5) was 3.48 µM (inactive). For the same compound, the GI50 (OVCAR-8) was 18.8 µM (inactive), the GI50 (PC-3) was 9.75 µM (inactive) and the GI50 (RPMI-8226) was 17.3 µM (inactive). For the same compound, the GI50 (RXF 393) was 3.56 µM (inactive), the GI50 (SF-268) was 31.2 µM (inactive) and the GI50 (SF-295) was 60.3 µM (inactive). For the same compound, the GI50 (SK-MEL-28) was 91.2 µM (inactive), the GI50 (SK-MEL-2) was 18.5 µM (inactive) and the GI50 (SK-MEL-5) was 59.7 µM (inactive). For the same compound, the GI50 (SK-OV-3) was 59.7 µM (inactive), the GI50 (SN12C) was 19 µM (inactive) and the GI50 (SNB-19) was 22.5 µM (inactive). The GI50 (SNB-75) was 14.1 µM (inactive), the GI50 (SR) was 2.82 µM (inactive) and the GI50 (SW-620) was 4.57 µM (inactive). For the same compound, the GI50 (T47D) was 1.35 µM (inactive), the GI50 (TK-10) was 31.6 µM (inactive) and the GI50 (U-251) was 11.4 µM (inactive). The GI50 (UACC-257) was 31.1 µM (inactive), the GI50 (UACC-62) was 17.3 µM (inactive) and the GI50 (UO-31) was 13.6 µM (inactive).
With `c1ccc(CN2CCCN3CCN(CCCN(Cc4ccccc4)CC3)CC2)cc1` the GI50 (786-0) was 42.2 µM (inactive), the GI50 (A498) was 58.5 µM (inactive) and the GI50 (A549) was 69.5 µM (inactive). The GI50 (ACHN) was > 100 µM (inactive), the GI50 (BT-549) was 44.5 µM (inactive) and the GI50 (CAKI-1) was > 100 µM (inactive). For the same compound, the GI50 (CCRF-CEM) was 46.9 µM (inactive), the GI50 (COLO 205) was 25.3 µM (inactive) and the GI50 (DU-145) was 68.5 µM (inactive). The GI50 (EKVX) was 41.9 µM (inactive), the GI50 (HCT-116) was 35.2 µM (inactive) and the GI50 (HCT-15) was over 100 µM. The GI50 (HL-60) was 24.7 µM (inactive), the GI50 (HOP-62) was > 100 µM (inactive) and the GI50 (HOP-92) was 92 µM (inactive). The GI50 (HT-29) was 35.9 µM (inactive), the GI50 (Hs-578T) was > 100 µM (inactive) and the GI50 (IGROV-1) was 60 µM (inactive). The GI50 (K562) was 32 µM (inactive), the GI50 (KM12) was 31.6 µM (inactive) and the GI50 (LOX IMVI) was 51.9 µM (inactive). The GI50 (M14) was 38 µM (inactive), the GI50 (MCF7) was 38.3 µM (inactive) and the GI50 (MDA-MB-231) was 38.2 µM (inactive). The GI50 (MDA-MB-435) was 32.7 µM (inactive), the GI50 (MDA-N) was 30.5 µM (inactive) and the GI50 (MOLT-4) was 81.3 µM (inactive). The GI50 (Malme-3M) was 0.227 µM (active), the GI50 (NCI-H226) was 73.6 µM (inactive) and the GI50 (NCI-H23) was 34.1 µM (inactive). For the same compound, the GI50 (NCI-H460) was 39.4 µM (inactive), the GI50 (NCI-H522) was 36.1 µM (inactive) and the GI50 (NCI/ADR-RES) was > 100 µM (inactive). For the same compound, the GI50 (OVCAR-3) was 27.2 µM (inactive), the GI50 (OVCAR-4) was 35.6 µM (inactive) and the GI50 (OVCAR-5) was > 100 µM (inactive). The GI50 (OVCAR-8) was 50.9 µM (inactive), the GI50 (PC-3) was 30.5 µM (inactive) and the GI50 (RPMI-8226) was 13 µM (inactive). The GI50 (RXF 393) was > 100 µM (inactive), the GI50 (SF-268) was 78.7 µM (inactive) and the GI50 (SF-295) was 87.7 µM (inactive). For the same compound, the GI50 (SF-539) was 87.7 µM (inactive), the GI50 (SK-MEL-28) was 39.4 µM (inactive) and the GI50 (SK-MEL-2) was 22.2 µM (inactive). For the same compound, the GI50 (SK-MEL-5) was 19.3 µM (inactive), the GI50 (SK-OV-3) was > 100 µM (inactive) and the GI50 (SN12C) was 31.5 µM (inactive). The GI50 (SNB-19) was 35.5 µM (inactive), the GI50 (SNB-75) was 32 µM (inactive) and the GI50 (SR) was 43 µM (inactive). For the same compound, the GI50 (SW-620) was > 100 µM (inactive), the GI50 (T47D) was 35.7 µM (inactive) and the GI50 (TK-10) was 55.6 µM (inactive). For the same compound, the GI50 (U-251) was 36.4 µM (inactive), the GI50 (UACC-257) was 22 µM (inactive) and the GI50 (UACC-62) was 35.1 µM (inactive). For the same compound, the GI50 (UO-31) was > 100 µM (inactive).
